Source: publication PMC5927774, “Isoxazol-5(2H)-one: a new scaffold for potent human neutrophil elastase (HNE) inhibitors” (Journal of Enzyme Inhibition and Medicinal Chemistry, 2017)

Assays:
[1] = target: T1, HNE (human neutrophil elastase) (Homo sapiens, UniProt P08246); assay: HNE inhibition assay (fluorogenic substrate); assay type: biochemical; settings: for IC50: Table 1, mean ± SD of three independent experiments, NA = no inhibitory activity at the highest concentration tested (50 μM)
T1 construct: purchased Calbiochem, La Jolla, CA
T1 sequence (P08246 30-267): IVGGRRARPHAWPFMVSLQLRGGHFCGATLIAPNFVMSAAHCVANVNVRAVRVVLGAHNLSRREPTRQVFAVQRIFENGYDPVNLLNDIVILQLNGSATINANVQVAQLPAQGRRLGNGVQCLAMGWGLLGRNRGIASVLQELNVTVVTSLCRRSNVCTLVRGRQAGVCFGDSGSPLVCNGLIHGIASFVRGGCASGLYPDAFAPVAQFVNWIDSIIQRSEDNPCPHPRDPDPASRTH
Experimental: HNE inhibition assay. Compounds were dissolved in 100% DMSO at 5 mM stock concentrations. The final concentration of DMSO in the reactions was 1%, and this level of DMSO had no effect on enzyme activity. The HNE inhibition assay was performed in black flat-bottom 96-well microtiter plates. Briefly, a buffer solution containing 200 mM Tris–HCl, pH 7.5, 0.01% bovine serum albumin, 0.05% Tween-20, and 20 mU/ml of HNE (Calbiochem, La Jolla, CA) was added to wells containing different concentrations of each compound. The reaction was initiated by addition of 25 μM elastase substrate (N-methylsuccinyl-Ala-Ala-Pro-Val-7-amino-4-methylcoumarin, Calbiochem) in a final reaction volume of 100 μL/well. Kinetic measurements were obtained every 30 s for 10 min at 25 °C using a Fluoroskan Ascent FL fluorescence microplate reader (Thermo Electron, Waltham, MA) with excitation and emission wavelengths at 355 and 460 nm, respectively. For all compounds tested, the concentration of inhibitor that caused 50% inhibition of the enzymatic reaction (IC50) was calculated by plotting % inhibition versus logarithm of inhibitor concentration (at least six points). The data are presented as the mean values of at least three independent experiments with relative standard deviations of <15%.

[2] = Spontaneous hydrolysis (chemical stability) in aqueous buffer; assay type: physicochemical; settings: 25 °C, 0.05 M phosphate buffer, pH 7.3; read-out: t1/2 (h) Spontaneous hydrolysis (converted)
Experimental: (§1) Spontaneous hydrolysis of selected derivatives was evaluated at 25 °C in 0.05 M phosphate buffer, pH 7.3. Kinetics of hydrolysis were monitored by measuring changes in absorbance spectra over time using a SpectraMax Plus microplate spectrophotometer (Molecular Devices, Sunnyvale, CA). Absorbance (At) at the characteristic absorption maxima of each compound was measured at the indicated times until no further absorbance decreases occurred (A∞)[30]. Using these measurements, we created semilogarithmic plots of log(At – A∞) versus time, and k′ values were determined from the slopes of these plots. Half-conversion times were calculated using t1/2=0.693/k′, as described previously.

HNE [3] = target: T2, HNE (Homo sapiens, UniProt P08246); assay: Compound hydrolysis in the presence of HNE; assay type: biochemical; settings: for half-life: human, phosphate buffer supplemented with HNE (400 mU/ml), pH 7.3, 400 mU/ml HNE, read-out: t1/2 (h) In the presence HNE (converted)
T2 construct: purchased Calbiochem, La Jolla, CA
T2 sequence (P08246 30-267): T1 sequence (P08246 30-267)
Experimental: as §1
In the presence of 400 mU/ml HNE, the hydrolysis was 2.2–4.8-fold higher than for spontaneous hydrolysis (i.e. without HNE) (Table 3).
Figure 5. Analysis of compound 2i spontaneous hydrolysis. Compound 2i (80 μM) was incubated in 0.05 M phosphate buffer ([…], 25 °C) supplemented with […] HNE, as indicated. Spontaneous hydrolysis was monitored by measuring changes in absorbance at 275 nm (absorption maximum of compound 2i) over time. The data are presented as the mean ± SD of triplicate samples from one experiment, which is representative of two independent experiments.

HNE [4] = target: T2, HNE; assay: Reversibility of the HNE-inhibitor complex over time (kinetic curves); assay type: biochemical; settings: compound at 5 μM
Experimental: (§2) However, inhibition by compound 2s was reversed after 10 min. […] To better understand the mechanism of action of this isoxazolone HNE inhibitor, we performed additional kinetic experiments.
Figure 6. Evaluation of HNE inhibition by selected isoxazolone derivatives. HNE was incubated with the indicated compounds at 5 μM concentrations, and kinetic curves monitoring substrate cleavage catalysed by HNE are shown. Representative curves are from three independent experiments.

HNE [5] = target: T2, HNE; assay: Lineweaver-Burk analysis of HNE inhibition; assay type: biochemical; settings: double-reciprocal Lineweaver-Burk plot
Experimental: as §2
Figure 7. Kinetics of HNE inhibition by compound 2o. Representative double-reciprocal Lineweaver–Burk plot from three independent experiments.

Row | SMILES | IC50 [1] [nM] | half-life [2] [h] | half-life (HNE [3]) [h] | also measured
1 | Cc1c(C)n(C(=O)C2CC2)oc1=O [Compound 2a, 2-(Cyclopropanecarbonyl)-3,4-dimethylisoxazol-5(2H)-one] | 120 ± 23 | – | – | –
2 | Cc1cccc(C(=O)n2oc(=O)c(C)c2C)c1 [Compound 2b, 3,4-Dimethyl-2-(3-methylbenzoyl)isoxazol-5(2H)-one] | 10900 ± 1200 | – | – | –
3 | CCc1c(C)n(C(=O)C2CC2)oc1=O [Compound 2c, 2-(Cyclopropanecarbonyl)-4-ethyl-3-methylisoxazol-5(2H)-one] | 130 ± 25 | – | – | –
4 | CCc1c(C)n(C(=O)c2cccc(C)c2)oc1=O [Compound 2d, 4-Ethyl-3-methyl-2-(3-methylbenzoyl)isoxazol-5(2H)-one] | 94 ± 23 | 7.7 | 3.5 | time during which HNE inhibition was maximal (HNE [4]): 30 min
5 | CCc1c(C)c(=O)on1C(=O)C1CC1 [Compound 2e, 2-(Cyclopropanecarbonyl)-3-ethyl-4-methylisoxazol-5(2H)-one] | 2200 ± 280 | – | – | –
6 | CCc1c(C)c(=O)on1C(=O)c1cccc(C)c1 [Compound 2f, 3-Ethyl-4-methyl-2-(3-methylbenzoyl)isoxazol-5(2H)-one] | 1800 ± 320 | – | – | –
7 | CCOC(=O)c1c(C)c(=O)on1C(=O)C1CC1 [Compound 2g, Ethyl 2-(cyclopropanecarbonyl)-4-methyl-5-oxo-2,5-dihydroisoxazole-3-carboxylate] | 440 ± 140 | – | – | –
8 | CCOC(=O)c1c(C)c(=O)on1C(=O)c1cccc(C)c1 [Compound 2h, Ethyl 4-methyl-2-(3-methylbenzoyl)-5-oxo-2,5-dihydroisoxazole-3-carboxylate] | 39700 ± 5100 | – | – | –
9 | CCc1cc(=O)on1C(=O)C1CC1 [Compound 2i, 2-(Cyclopropanecarbonyl)-3-ethylisoxazol-5(2H)-one] | 96 ± 22 | 19.3 | 4 | hydrolysis with increasing HNE concentration (in words) (HNE [3]; 80 μM compound, 0.05 M phosphate buffer pH 7.5, 25 °C, 0, 50, 200, 400 μg/ml HNE, absorbance at 275 nm): dose-dependent hydrolysis; time during which HNE inhibition was maximal (HNE [4]): 30 min
10 | CCc1cc(=O)on1C(=O)c1cccc(C)c1 [Compound 2j, 3-Ethyl-2-(3-methylbenzoyl)isoxazol-5(2H)-one] | 43 ± 11 | 5.3 | 2.1 | fold higher inhibitory activity with respect to the corresponding 4-methyl derivative ([1]; 2i vs 2e, 2j vs 2f): 42 fold; melting point: 81 to 84 °C; time during which HNE inhibition was maximal (HNE [4]): 30 min
11 | CCC(=O)n1oc(=O)cc1C(C)C [Compound 2k, 3-Isopropyl-2-propionylisoxazol-5(2H)-one] | 1100 ± 140 | – | – | melting point: 92 to 95 °C
12 | CC(C)c1cc(=O)on1C(=O)C1CC1 [Compound 2l, 2-(Cyclopropanecarbonyl)-3-isopropylisoxazol-5(2H)-one] | 34 ± 9 | 19.3 | 4.3 | time during which HNE inhibition was maximal (HNE [4]): 30 min
13 | CC(C)c1cc(=O)on1C(=O)C1CCCC1 [Compound 2m, 2-(Cyclopentanecarbonyl)-3-isopropylisoxazol-5(2H)-one] | 560 ± 150 | – | – | –
14 | Cc1cccc(C(=O)n2oc(=O)cc2C(C)C)c1 [Compound 2n, 3-Isopropyl-2-(3-methylbenzoyl)isoxazol-5(2H)-one] | 42 ± 11 | 6.2 | 2.6 | time during which HNE inhibition was maximal (HNE [4]): 30 min
15 | Cc1ccc(C(=O)n2oc(=O)cc2C(C)C)cc1 [Compound 2o, 3-Isopropyl-2-(4-methylbenzoyl)isoxazol-5(2H)-one] | 20 ± 7 | 8.9 | 3.4 | mechanism of HNE inhibition (in words) (HNE [5]): competitive HNE inhibitor; melting point: 77 to 79 °C; time after which HNE inhibition was reversed (HNE [4]): 2 h
16 | CC(C)c1cc(=O)on1C(=O)c1cccc(C#N)c1 [Compound 2p, 3-(3-Isopropyl-5-oxo-2,5-dihydroisoxazole-2-carbonyl)benzonitrile] | 6500 ± 1700 | – | – | –
17 | CC(C)c1cc(=O)on1C(=O)c1ccc(C#N)cc1 [Compound 2q, 4-(3-Isopropyl-5-oxo-2,5-dihydroisoxazole-2-carbonyl)benzonitrile] | 18200 ± 2500 | – | – | melting point: 113 to 115 °C
18 | CC(C)c1cc(=O)on1C(=O)c1cccc(C(F)(F)F)c1 [Compound 2r, 3-Isopropyl-2-(3-(trifluoromethyl)benzoyl)isoxazol-5(2H)-one] | 1200 ± 220 | – | – | –
19 | CC(C)c1cc(=O)on1C(=O)c1ccc(C(F)(F)F)cc1 [Compound 2s, 3-Isopropyl-2-(4-(trifluoromethyl)benzoyl)isoxazol-5(2H)-one] | 34 ± 12 | 3.1 | 0.9 | time after which HNE inhibition was reversed (HNE [4]): 0.167 h
20 | CC(C)c1cc(=S)on1C(=O)C1CC1 [Compound 3a, Cyclopropyl-(3-isopropyl-5-thioxoisoxazol-2(5H)-yl)methanone] | 2100 ± 310 | – | – | –
21 | Cc1cccc(C(=O)n2oc(=S)cc2C(C)C)c1 [Compound 3b, (3-Isopropyl-5-thioxoisoxazol-2(5H)-yl)-(m-tolyl)methanone] | – | – | – | HNE inhibitory activity (in words) [1]: inactivity
22 | Cc1cccc(Cn2oc(=O)c(C)c2C)c1 [Compound 4a, 3,4-Dimethyl-2-(3-methylbenzyl)isoxazol-5(2H)-one] | – | – | – | melting point: 80 to 83 °C
